Laboratory results published in paper PMC6984732, “Thymidine phosphorylase and prostrate cancer cell proliferation inhibitory activities of synthetic 4-hydroxybenzohydrazides: In vitro, kinetic, and in silico studies” (PLoS ONE, 2020).

How the values were obtained:
[1] = target: T1, thymidine phosphorylase (TP) (Escherichia coli, UniProt P07650); assay: Thymidine phosphorylase inhibition assay (spectrophotometric, 290 nm); type: biochemical, E. coli; conditions: for inhibition: read-out: Percent Inhibition of thymidine phosphorylase, 10 μL of test compound (0.5 mM in dimethylsulfoxide) per well, <50% regarded inactive; for IC50: recombinant TP expressed in E. coli, substrate thymidine, pH 7.0, 30°C, N.A. = not active, read-out: IC50 (μM ± SEM), thymidine phosphorylase inhibition
T1 construct: purchased Sigma Aldrich, USA; host or cells: E. coli
Description: Since human TP is not commercially available, we used commercially available recombinant TP (expressed in E. coli) enzyme. Primary sequence of TP is mostly conserved throughout the evolution and mammalian TP share 39% sequence similarity with TP of E. coli. The mammalian enzyme also shares 65–70% similarity with the active site residues of E. coli TP enzyme.
Assay for TP inhibition was performed spectrophotometrically, following the method of Bera et al. with some modifications. Enzyme TP catalyzed the reversible phosphorolysis of thymidine to thymine and 2-deoxyribose-1-phosphate. Reaction mixture contained 150 μL of potassium phosphate buffer (pH 7.0, 50 mM), 20 μL of enzyme (0.058 U/well), and 10 μL of test compound (0.5 mM in dimethylsulfoxide). The reaction mixture was incubated for 10 min at 30°C. 20 μL of substrate (1.5 mM) was then added and change in absorbance was recorded after every minute for a total time period of 10 minutes at 290 nm in ELISA plate reader (Spectra Max-340, Molecular Devices, CA, USA).
We have used the 96-well UV-plates, purchased from Corning (Catalogue No. COSTAR 3635, Lot No. 00912050). […] We then added the substrate (thymidine), and recorded the final readings.

[2] = target: T1, thymidine phosphorylase (TP); assay: Kinetic studies on thymidine phosphorylase (Lineweaver-Burk, secondary re-plot, Dixon plot); type: biochemical, E. coli; conditions: thymidine as variable substrate; for Inhibition Type: from Lineweaver-Burk plot
Description: Kinetic studies were carried out to identify the mechanism of inhibition by these compounds. Inhibitor could bind with the enzyme in multiple ways, such as in competitive, non-competitive, mixed or uncompetitive way. In kinetic assay, the enzyme (0.058 U/200 μL) was incubated with different concentrations of inhibitor for 10 min at 30°C. The reaction was then initiated by adding different concentrations (0.1875–1.5 mM) of substrate (thymidine), and the resulting degradation of thymidine was measured continuously at 290 nm for 10 min on ELISA plate reader. Every experiment was run in triplicate.
Lineweaver-Burk plot was plotted to determine the type of inhibition. This was accomplished by plotting the reciprocal of the rate of reaction against the reciprocal of the substrate concentration. Ki values were determined by secondary re-plot of Lineweaver-Burk plot, and reconfirmed by Dixon plot.

[3] = system: mouse fibroblast (3T3) cells; assay: MTT anti-proliferative (cytotoxicity) assay, 3T3 cells; type: cell-based; conditions: NIH3T3, 48 h incubation, mouse fibroblast normal cell line, read-out: IC50 ± Standard Deviation, 3T3 Cell Line
Description: (§1) Anti-proliferative activity of active compounds was evaluated by using the standard MTT (3-[4,5-dimethylthiazole-2-yl]-2,5-diphenyl-tetrazolium bromide) colorimetric assay in 96-well plate.
(§2) It is a colorimetric assay that measures the reduction of MTT by mitochondrial enzyme i.e. succinate dehydrogenase. The MTT enters into the mitochondria of cell, where it is reduced to an insoluble formazan salt. As reduction of MTT can only occur in metabolically active cells, the level of activity is actually a measure of the viability of the cells.
(§3) Mouse fibroblast normal cell line 3T3, and prostate cancer line (PC3) were cultured separately in DMEM, supplemented with 5% of FBS, 100 IU/mL of penicillin and 100 μg/mL of streptomycin, and kept at 37°C in 5% CO2 incubator. For the preparation of cell culture, 100 μL/well of cell solution (5 x 10^4 cells/mL) was added into 96-well plate. The plate was incubated for overnight, and fresh medium was added after the removal of old medium. The test compounds were also added in different concentrations into the plate, and again incubated for 48 h. After the completion of this incubation period, 200 μL MTT (0.5 mg/mL) was added, and plate was again incubated for 4 h, after this final incubation, 100 μL of DMSO was added to each well. The level of MTT reduction to formazan was evaluated by change in absorbance at 540 nm for 3T3, and 570 nm for PC3 using a micro-plate reader (Spectra Max plus, Molecular Devices, CA, USA).

[4] = system: prostate cancer (PC3) cells; assay: MTT anti-proliferative assay, PC3 cells; type: cell-based; conditions: Homo sapiens, PC-3, 48 h incubation, prostate cancer cell line, read-out: IC50 ± Standard Deviation, PC3 Cell Line
Description: as §1, §2, §3

T1 sequence (P07650 whole entry): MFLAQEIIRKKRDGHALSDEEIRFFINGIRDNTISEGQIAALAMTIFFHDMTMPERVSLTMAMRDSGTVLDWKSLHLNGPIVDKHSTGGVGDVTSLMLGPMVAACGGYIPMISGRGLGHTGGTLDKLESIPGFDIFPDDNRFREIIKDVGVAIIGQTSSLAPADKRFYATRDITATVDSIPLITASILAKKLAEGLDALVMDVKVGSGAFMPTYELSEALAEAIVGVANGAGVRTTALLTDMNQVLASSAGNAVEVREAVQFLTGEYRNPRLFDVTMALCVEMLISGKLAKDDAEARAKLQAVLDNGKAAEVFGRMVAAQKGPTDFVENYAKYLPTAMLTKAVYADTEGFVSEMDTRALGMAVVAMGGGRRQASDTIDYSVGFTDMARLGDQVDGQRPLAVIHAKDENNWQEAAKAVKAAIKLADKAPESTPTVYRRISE

| Structure (SMILES) | inhibition [1] | IC50 [1] | Inhibition Type [2] | Ki ([2]; secondary re-plot of Lineweaver-Burk plot, reconfirmed by Dixon plot, read-out: Ki (μM ± SEM)) | IC50 [3] | IC50 [4] |
| --- | --- | --- | --- | --- | --- | --- |
| O=C(NN=Cc1cc(Br)cc(Br)c1O)c1ccc(O)cc1 [Compound 22, N'-[(E)-(3^′,5^′-Dibromo-2^′-hydroxylphenyl)methylidene]-4-hydroxylbenzohydrazide] | 99.9% | 6.8 ± 0.7 µM | Non-competitive | 1.75 ± 0.009 µM | 9.2 ± 0.1 µM | 8.3 ± 0.9 µM |
| C/C(=N\NC(=O)c1ccc(O)cc1)c1c(O)cccc1O [Compound 27, N'-[(E)-1-(2^′,6^′-Dihydroxylphenyl)ethylidene]-4-hydroxylbenzohydrazide] | 93% |  | Uncompetitive |  | 26.7 ± 1 µM | > 30 µM |
| CC/C(=N\NC(=O)c1ccc(O)cc1)c1cc(O)ccc1O [Compound 29, N'-[(E)-1-(2^′,5^′-Dihydroxylphenyl)propylidene]-4-hydroxylbenzohydrazide] | 99% | 173 ± 1.4 µM | Uncompetitive |  | 19.5 ± 0.9 µM | > 30 µM |
